Experimental data from PubChem BioAssay AID179 (DTP/NCI, 2004).
Values joined by “and” are separate entries in the source; they are usually repeats but may differ in a detail not shown here. Equal values may be shown once. Active and inactive are the calls of the source.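 The calls were made as follows: active = compounds giving half or more protection of infected cells from virus-caused growth loss, again on retest; inactive = the rest.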

Test system: CEM cells HIV-1 protection, formazan growth assay
Assay: NCI AIDS Antiviral Assay
Settings: for IC50: measured here: growth of uninfected CEM cells
Method in brief: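 Five concentrations of each compound were applied to infected and uninfected human CEM cells. Protection from HIV-1 was judged from growth measured with a soluble formazan assay.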

Row | SMILES | EC50 [µM] | IC50 | outcome
1 | CNCCN=c1ccc2c3c1c(O)c1c(O)ccc(=O)c1c3[nH]n2CCNCCO | > 112 | 0.347 µM | –
2 | C[C@@H]1CN2SN1C[C@@H]2C | > 1740 | > 1740 µM | –
3 | CN(C)C=Nc1ccn(CCO)c(=O)n1 | > 1200 | > 1200 µM | –
4 | COc1ccccc1C1C(Cl)C(=O)N1n1cnc2ccccc2c1=O (centres undefined) | > 52.5 | > 52.5 µM | –
5 | Oc1cccc(C2SCc3nc4ccccc4n32)c1 (centres undefined) | > 126 | 46.8 µM | –
6 | c1ccc(C2=C(c3ccccc3)C23SCCS3)cc1 | > 200 | 33.9 µM | –
7 | CC1(C)CC(=O)C2=C(C1)OC1=C(C(=O)CC(C)(C)C1)C2CC(c1ccccc1)c1ccc(O)c(O)c1O (centres undefined) | > 200 | 8.51 µM | –
8 | CCOC(=O)c1nc2ccccc2nc1Nc1ccc(C(=O)OC)s1 | > 200 | > 200 µM | –
9 | CC(=O)OC1CCN(C)CC1CCl (centres undefined) | > 200 | > 200 µM | –
10 | COC(=O)C1Cc2ccc(O)c(O)c2CN1 (centres undefined) | > 33.9 | 8.91 µM | –
11 | N#Cc1ccsc1C#N | > 200 | > 200 µM | –
12 | O=C1C(CN(Cc2ccccc2)Cc2ccccc2)CCCC1CN(Cc1ccccc1)Cc1ccccc1 (centres undefined) | > 26.3 | > 26.3 µM | inactive
13 | COC(=O)C1=CC(NC(=O)OCc2ccccc2)C(C(=O)c2ccccc2)C[C@@H]1Sc1ccccc1 (some centres undefined) | – | – | inactive
14 | CN(C)c1ccc(N=Nc2cccc3ncccc23)cc1 | > 200 | 72.4 µM | –
15 | CC(C)=CCC/C(C)=C/CCC(C)/C=C/C(=O)NC[C@@H]1CC[N@+]2(C)CCCC[C@H]12 (some centres undefined) | > 501 | 23.4 µM | –
16 | Nc1nc(NNc2cccc(F)c2)cc(=O)[nH]1 | > 200 | 16.6 µM | –
17 | CN1C(=O)C(Cl)(C(Cl)(Cl)S(=O)(=O)O)C(=O)c2ccccc21 (centres undefined) | – | – | inactive
18 | COc1ccc2c(c1)OC[C@@H]1c3cc(O)c4c(OCc5ccccc5)cccc4c3O[C@H]21 | > 100 | 67.6 µM | –
19 | CC(=O)C(=Cc1ccc(Cl)cc1)C(C)=O | > 427 | 19.5 µM | –
20 | CC(=O)c1c(-c2cccc3ccccc23)c(C#N)c(=S)n(C2OC(CO)C(O)C(O)C2O)c1C (centres undefined) | > 200 | 132 µM and 53.7 µM | –
21 | O=C(NN1C(=O)CSC1c1ccco1)c1ccncc1 (centres undefined) | > 200 | > 200 µM | –
22 | O=C(Nc1ccc(C(F)(F)F)cc1[N+](=O)[O-])C(=O)C1NC(=S)NC1=O (centres undefined) | > 95.5 | > 95.5 µM | –
23 | O=C(/C=C/c1ccc(OCC(=O)N2CCN(c3ccccc3)CC2)cc1)c1ccccc1 | > 23.4 | > 23.4 µM | –

Row | SMILES | EC50 [µM] | IC50 | outcome
24 | Cc1ccc2[nH]c3c(c2c1)C1CCC(C(C)(C)C)CC1C1C(=O)N(c2ccc4c(c2)OCO4)C(=O)C31 (centres undefined) | > 200 | 11.5 µM | –
25 | CN(C)CC1C2C=CC(C3CC23)C1CN(C)C (centres undefined) | – | – | inactive
26 | COC(=O)c1ccc(Oc2nc3ccc(C(F)(F)F)cc3nc2-c2ccccc2)cc1 | > 200 | > 200 µM | –
27 | Cn1c(=O)c2ncnnc2n(C)c1=O | > 200 | 93.3 µM | –
28 | CCCCCc1cc2cc(O)cc(Oc3c(O)cc(O)c(C(=O)O)c3CCCCC)c2c(=O)o1 | > 200 | 34.7 µM | –
29 | CC(C)(C)C(=O)C(C#N)C(=O)C(C)(C)C | > 200 | > 200 µM | –
30 | O=C1CCC2(C=Nc3ccccc32)C2Cc3ccccc3N12 (centres undefined) | > 13.2 | > 13.2 µM | –
31 | O=C1Nc2cnc(Cl)nc2Nc2cc(Cl)ccc21 | > 200 | > 200 µM | –
32 | C=CCOC(OCC=C)/C(Br)=C/C | – | – | inactive
33 | N#Cc1sc2nc3c(c(-c4ccccc4)c2c1N)CCCC3 | – | – | inactive
34 | O=C(NC(=Nc1ccccc1)SCSC(=Nc1ccccc1)NC(=O)c1ccco1)c1ccco1 | > 14.5 | > 14.5 µM | –
35 | COc1c(O)ccc2oc3cccc(O)c3c(=O)c12 | > 200 | 110 µM | –
36 | CC(=O)Nc1ccc(S(=O)(=O)Nc2ccc([N+](=O)[O-])cc2)cc1 | > 200 | > 200 µM | inactive
37 | CN(CCO)CCCC1COc2ccccc2O1 (centres undefined) | > 200 | > 200 µM | –
38 | O=Nc1ccc(C=C2C(=O)C=CC2=O)cc1 | > 200 | 10.2 µM | –
39 | COc1cc(C2c3cc4c(c(O)c3C[C@H]3COC(=O)[C@@H]23)OCO4)cc(OC)c1O (some centres undefined) | > 200 | 0.0631 µM | –
40 | C=CC[C@@]12CCC(=O)C=C1CCCC2=O | – | – | inactive
41 | O=C1OC(c2ccccc2)=N/C1=C\c1c(O)cc(O)cc1O | > 87.1 | > 87.1 µM | –
42 | CC(C)(c1ccc(OP2(=O)OCC3(CC=CCC3)CO2)cc1)c1ccc(OP2(=O)OCC3(CC=CCC3)CO2)cc1 (centres undefined) | > 200 | 22.9 µM | –
43 | Nc1cc(Nc2ccc(Cl)[nH]c2=S)nc(N)n1 | > 186 | 5.75 µM | –
44 | CCOC(=O)C1(C)C(=O)CC2c3nc4ccccc4cc3CN2C1=O (centres undefined) | > 10 | > 10 µM | –
45 | COC(=O)/C=C(C)/C=C\COC1CCCCO1 (centres undefined) | > 200 | > 200 µM | –
46 | NNC(=O)C1C2c3ccccc3C(c3ccccc32)C1C(=O)O (centres undefined) | > 200 | > 200 µM | –

Row | SMILES | EC50 [µM] | IC50 | outcome
47 | O=C1NC(=O)C(=Cc2ccc(F)cc2)C(=O)N1 | > 112 | > 112 µM | –
48 | COc1ccccc1C1C=NNC1 (centres undefined) | > 200 | 107 µM | –
49 | CCN(CC)c1ccc(NC(=S)NN)cc1 | > 200 | 11.2 µM | –
50 | CCCCC(CC)COS(=O)(=O)O (centres undefined) | 145 | > 200 µM | –
51 | COc1cccc2cc(C)c(C(=O)c3ccccc3)nc12 | > 64.6 | > 64.6 µM | –
52 | COc1ccc2oc(=O)c3c(c2c1C)OC(C)(C)C=C3 | > 200 | > 100 µM | –
53 | CNC1C(O)C(OC2C(N)CC(N)C(OC3OC(CN)=CCC3N)C2O)OCC1(C)O (centres undefined) | – | – | inactive
54 | CCOC(=O)C1OC12CCC(C(C)(C)C)CC2 (centres undefined) | > 200 | 191 µM | –
55 | O=C(Nc1ccc(Cl)cc1)c1cc(S(=O)(=O)NC2=NC(c3ccccc3)c3cc(Cl)ccc3N2)c(SSc2cc(Cl)c(C(=O)Nc3ccc(Cl)cc3)cc2S(=O)(=O)NC2=NC(c3ccccc3)c3cc(Cl)ccc3N2)cc1Cl (centres undefined) | > 200 | > 200 µM | –
56 | COc1cc(Nc2cnc3cc(C(F)(F)F)ccc3n2)cc(OC)c1OC | > 50.1 | > 50.1 µM | –
57 | COc1ccc(-c2oc3c(OC)c(OC)cc(O)c3c(=O)c2OC)cc1 | > 200 | > 200 µM | –
58 | O=c1c2n[nH]nc2nc2n1CC(c1ccccc1)S2 (centres undefined) | – | – | inactive
59 | Cc1cc(N(CCC#N)CCC#N)ccc1C=Nc1ccc(C(=O)NN2C(=O)/C(=C/c3ccc(N(CCC#N)CCC#N)cc3)N=C2c2cc([N+](=O)[O-])ccc2Cl)cc1 | > 44.7 | > 44.7 µM | –
60 | c1cc2sc3ccc(OCCCN4CCCCC4)cc3c2cc1OCCCN1CCCCC1 | > 93.3 | 1.58 µM | –
61 | Clc1ccc2nncc(N3CC3)c2c1 | – | – | inactive
62 | COc1ccc2nc3c([N+](=O)[O-])ccc(NCCN(C)C)c3c(N)c2c1 | > 200 | 0.794 µM | –
63 | C=C1C2CC3CCC2C(OC(=O)c2ccccc2C(=O)O)C13 (centres undefined) | > 200 | > 200 µM | –
64 | O=C1CCC2(c3ccccc3)Nc3cc([N+](=O)[O-])ccc3N12 (centres undefined) | > 24.5 | > 24.5 µM | –
65 | CNC(=O)CCCNC(=O)CCCC(=O)N(C)C | > 200 | > 200 µM | –
66 | C=C(COCO)C(C)=O | > 200 | 1.45 µM | –
67 | CC1OC(OC2C(O[C@H]3CC[C@@]4(C)[C@@H](CC[C@@H]5[C@@H]4CC[C@]4(C)[C@@H]6[C@H](C[C@@H]54)O[C@]4(CC[C@@H](C)CO4)[C@H]6C)C3)OC(CO)C(OC3OC(CO)C(O)C(OC4OCC(O)C(O)C4O)C3OC3OCC(O)C(O)C3O)C2O)C(O)C(O)C1O (some centres undefined) | > 2 | 0.832 µM | –
68 | COc1cc(/C=C2/SC(=S)NC2=O)cc(OC)c1O | – | – | inactive
69 | C=CCOCn1cc(C)c(=O)[nH]c1=O | > 200 | > 200 µM | –

Row | SMILES | EC50 [µM] | IC50 | outcome
70 | O=C1OC(=O)c2c1c(-c1ccccc1)cn2-c1ccc(Cl)cc1 | – | – | inactive
71 | CCCCNc1nc(C#N)c(N)s1 | > 1260 | 204 µM | –
72 | CN(C)CCCOC(=O)C(c1ccccc1)C1(O)CCSCC1 (centres undefined) | > 200 | > 200 µM | –
73 | Cc1nc(-c2cccnc2)sc1C(=O)CC(=O)C(=O)Nc1cccc(NC(=O)C(=O)CC(=O)c2sc(-c3cccnc3)nc2C)n1 | > 275 | 158 µM | –
74 | COC(=O)CCCC(=O)C1=Nc2ccccc2CN(c2ccc(Cl)cc2)N1 | > 200 | 126 µM | –
75 | C[C@@H]1OC2(O)[C@@H]3CCCN3C(=O)N(Cc3ccccc3)N2C1=O (some centres undefined) | > 200 | > 200 µM | –
76 | CC1CC[C@H]2[C@@H]1[C@H]1[C@@H](CC[C@@]23CCc2ccccc2O3)C1(C)C (some centres undefined) | > 11.5 | > 11.5 µM | –
77 | CSc1nc(NC(=O)O)c(N(C(C)=O)C(=O)O)c(=O)n1C | > 794 | > 794 µM | –
78 | CCCCCCCCCC(=O)OCC1OC(n2cc(F)c(=O)[nH]c2=O)C(N)C(OC(=O)CCCCCCCCC)C1O (centres undefined) | > 31.6 | > 31.6 µM | –
79 | CCN(CC)c1nnc(CCCCCCCCc2nnc(N(CC)CC)o2)o1 | > 200 | > 200 µM | –
80 | O=C(O)c1cc(CCc2cc(O)ccc2O)ccc1O | > 182 | 28.8 µM | –
81 | Cn1c(=O)c2c(nc3n2CC(=O)N3CCCCl)n(C)c1=O | 85.1 | > 200 µM | –
82 | CCOC(=O)CCC(NC(=O)c1ccc(OCc2ccc3nc(OC)c(OC)nc3c2)cc1)C(=O)OCC (centres undefined) | > 200 | 41.7 µM | –
83 | C=C1CC(CCCl)(c2ccccc2)OC1=O (centres undefined) | > 41.7 | 6.46 µM | –
84 | Cc1cccc(NC(=O)CC2C(=O)Nc3ccccc3S2(=O)=O)c1C (centres undefined) | > 5.62 | > 5.62 µM | –
85 | O=C1c2ccccc2C(=O)c2c(NCCNC(=O)C3CCCN3)ccc(NCCNC(=O)C3CCCN3)c21 (centres undefined) | > 151 | 22.4 µM | –
86 | CCOC(=O)C[P+](c1ccc(Cl)cc1)(c1ccc(Cl)cc1)c1ccc(Cl)cc1 | > 200 | 18.6 µM | –
87 | COc1ccc(CCNC=O)cc1OC | – | – | inactive
88 | COC(=O)c1ccccc1CC1Cc2ccc3c(c2C1=O)CCC3 (centres undefined) | > 200 | > 200 µM | –
89 | NNC(=O)C1C(O)CCC2CN3CCc4c([nH]c5ccccc45)C3CC21 (centres undefined) | – | – | inactive
90 | O=C1NC(=S)NNC12c1ccccc1-c1ccccc12 | > 200 | 33.9 µM | –
